Reference: paper PMC5218480 (PLoS ONE, 2017)

System: MV-4-11 cells
Assay: Gene expression microarray analysis (Affymetrix PrimeView) and GSEA
Format: cell-based, human
Parameters: RFU PODN (11730768_x_at) / Fold change /veh PODN (11730768_x_at) / RFU LINC00158 (11744669_a_at) / Fold change /veh LINC00158 (11744669_a_at) / RFU DUSP10 (11751237_a_at) / Fold change /veh DUSP10 (11751237_a_at) / RFU ID3 (11757404_x_at) / Fold change /veh ID3 (11757404_x_at) / RFU PLEKHG5 (11737974_s_at) / Fold change /veh PLEKHG5 (11737974_s_at) / RFU LRRC4B (11730491_at) / Fold change /veh LRRC4B (11730491_at) / RFU GIMAP4 (11747438_a_at) / Fold change /veh GIMAP4 (11747438_a_at) / RFU KRT8 (11758183_x_at) / Fold change /veh KRT8 (11758183_x_at) / RFU CNN1 (11734310_a_at) / Fold change /veh CNN1 (11734310_a_at) / RFU VPS37D (11726825_at) / Fold change /veh VPS37D (11726825_at) / RFU C10orf10 (11716522_x_at) / Fold change /veh C10orf10 (11716522_x_at) / RFU KIR2DL2 /// KIR2DL4 /// KIR2DL5A /// KIR2DL5B /// KIR2DS1 /// KIR2DS2 /// KIR2DS3 /// KIR2DS4 /// KIR3DL3 /// KIR3DL3 /// KIR3DS1 (11738374_at) / Fold change /veh KIR2DL2 /// KIR2DL4 /// KIR2DL5A /// KIR2DL5B /// KIR2DS1 /// KIR2DS2 /// KIR2DS3 /// KIR2DS4 /// KIR3DL3 /// KIR3DL3 /// KIR3DS1 (11738374_at) / RFU C1QL1 (11718748_at) / Fold change /veh C1QL1 (11718748_at) / RFU TMPRSS4 (11747572_a_at) / Fold change /veh TMPRSS4 (11747572_a_at) / RFU HAMP (11756126_x_at) / Fold change /veh HAMP (11756126_x_at) / RFU RNFT2 (11725882_a_at) / Fold change /veh RNFT2 (11725882_a_at) / RFU NR4A2 (11747474_a_at) / Fold change /veh NR4A2 (11747474_a_at) / RFU ABCC12 (11746883_a_at) / Fold change /veh ABCC12 (11746883_a_at) / RFU TMEM136 (11760407_x_at) / Fold change /veh TMEM136 (11760407_x_at) / RFU CLDN22 /// WWC2 (11732394_at) / Fold change /veh CLDN22 /// WWC2 (11732394_at) / RFU HLA-DPB1 (11760878_x_at) / Fold change /veh HLA-DPB1 (11760878_x_at) / RFU SPINT1 (11716480_a_at) / Fold change /veh SPINT1 (11716480_a_at) / RFU GAP43 (11754022_s_at) / Fold change /veh GAP43 (11754022_s_at) / RFU A4GNT (11735810_at) / Fold change /veh A4GNT (11735810_at) / RFU PRB3 (11715151_x_at) / Fold change /veh PRB3 (11715151_x_at) / RFU TUBB4B (11761932_at) / Fold change /veh TUBB4B (11761932_at) / RFU CAPN14 (11732068_a_at) / Fold change /veh CAPN14 (11732068_a_at) / RFU TMCC2 (11721928_a_at) / Fold change /veh TMCC2 (11721928_a_at) / RFU IRGQ (11745062_a_at) / Fold change /veh IRGQ (11745062_a_at) / RFU FAM174B (11720279_a_at) / Fold change /veh FAM174B (11720279_a_at) / RFU TMPRSS4 (11748680_a_at) / Fold change /veh TMPRSS4 (11748680_a_at) / RFU FAM212B (11763350_a_at) / Fold change /veh FAM212B (11763350_a_at) / RFU PLEKHG5 (11743358_a_at) / Fold change /veh PLEKHG5 (11743358_a_at) / RFU ZSCAN30 (11745921_a_at) / Fold change /veh ZSCAN30 (11745921_a_at) / RFU CMKLR1 (11741424_a_at) / Fold change /veh CMKLR1 (11741424_a_at) / RFU LOC101060620 /// MAPK8IP1 (11723275_at) / Fold change /veh LOC101060620 /// MAPK8IP1 (11723275_at) / RFU SPTSSB (11747773_x_at) / Fold change /veh SPTSSB (11747773_x_at) / RFU PRSS12 (11739890_at) / Fold change /veh PRSS12 (11739890_at) / RFU BIN1 (11741810_x_at) / Fold change /veh BIN1 (11741810_x_at) / RFU WNT11 (11732464_a_at) / Fold change /veh WNT11 (11732464_a_at) / RFU C10orf10 (11716521_a_at) / Fold change /veh C10orf10 (11716521_a_at) / RFU C5orf56 (11738089_at) / Fold change /veh C5orf56 (11738089_at) / RFU CYB561 (11721691_x_at) / Fold change /veh CYB561 (11721691_x_at) / RFU ANKRD19P (11752326_a_at) / Fold change /veh ANKRD19P (11752326_a_at) / RFU OR2T12 /// OR2T33 /// OR2T8 (11738714_s_at) / Fold change /veh OR2T12 /// OR2T33 /// OR2T8 (11738714_s_at) / RFU VCAN (11748164_a_at) / Fold change /veh VCAN (11748164_a_at) / RFU JSRP1 (11732532_at) / Fold change /veh JSRP1 (11732532_at) / RFU KRTAP10-11 (11738290_x_at) / Fold change /veh KRTAP10-11 (11738290_x_at) / RFU MYO3A (11730013_a_at) / Fold change /veh MYO3A (11730013_a_at) / RFU EBF3 (11725865_a_at) / Fold change /veh EBF3 (11725865_a_at) / RFU CAMK2N1 (11719241_x_at) / Fold change /veh CAMK2N1 (11719241_x_at) / RFU C5orf56 (11738088_a_at) / Fold change /veh C5orf56 (11738088_a_at) / RFU OLFML3 (11715873_a_at) / Fold change /veh OLFML3 (11715873_a_at) / RFU LOC100653217 /// NTM (11731650_a_at) / Fold change /veh LOC100653217 /// NTM (11731650_a_at) / RFU MAPK11 (11762145_a_at) / Fold change /veh MAPK11 (11762145_a_at) / RFU FIZ1 (11724087_x_at) / Fold change /veh FIZ1 (11724087_x_at) / RFU OASL (11726364_x_at) / Fold change /veh OASL (11726364_x_at) / RFU SOX15 (11748057_x_at) / Fold change /veh SOX15 (11748057_x_at) / RFU CD79A (11719716_a_at) / Fold change /veh CD79A (11719716_a_at) / RFU HIST1H1D (11736915_at) / Fold change /veh HIST1H1D (11736915_at) / RFU CASKIN2 (11723855_a_at) / Fold change /veh CASKIN2 (11723855_a_at) / RFU LOC730098 (11760151_x_at) / Fold change /veh LOC730098 (11760151_x_at) / RFU OR4N2 (11742367_at) / Fold change /veh OR4N2 (11742367_at) / RFU PRRT2 (11749266_a_at) / Fold change /veh PRRT2 (11749266_a_at) / RFU SNX32 (11753110_a_at) / Fold change /veh SNX32 (11753110_a_at) / RFU CDHR5 (11726645_a_at) / Fold change /veh CDHR5 (11726645_a_at) / RFU RCAN1 (11760418_a_at) / Fold change /veh RCAN1 (11760418_a_at) / RFU FAM167A (11723789_a_at) / Fold change /veh FAM167A (11723789_a_at) / RFU FAM26E (11764081_at) / Fold change /veh FAM26E (11764081_at) / RFU ISYNA1 (11749810_s_at) / Fold change /veh ISYNA1 (11749810_s_at) / RFU ACY1 (11761880_at) / Fold change /veh ACY1 (11761880_at) / RFU 11764098_at / Fold change /veh 11764098_at / RFU SAMD14 (11745864_x_at) / Fold change /veh SAMD14 (11745864_x_at) / RFU NPB (11741838_a_at) / Fold change /veh NPB (11741838_a_at) / RFU TMPRSS6 (11731388_a_at) / Fold change /veh TMPRSS6 (11731388_a_at) / RFU KRTAP10-2 (11738614_at) / Fold change /veh KRTAP10-2 (11738614_at) / RFU ARHGAP8 /// PRR5-ARHGAP8 (11727945_x_at) / Fold change /veh ARHGAP8 /// PRR5-ARHGAP8 (11727945_x_at) / RFU KRTAP5-7 /// NADSYN1 (11734609_at) / Fold change /veh KRTAP5-7 /// NADSYN1 (11734609_at) / RFU RASL12 (11751679_a_at) / Fold change /veh RASL12 (11751679_a_at) / RFU CDKN2B (11736163_a_at) / Fold change /veh CDKN2B (11736163_a_at) / RFU PRF1 (11729649_at) / Fold change /veh PRF1 (11729649_at) / RFU, ZNF638 /// ZNF638-IT1 / Fold change vs veh, ZNF638 /// ZNF638-IT1 / RFU, PANK3 / Fold change vs veh, PANK3 / RFU, SH3YL1 / Fold change vs veh, SH3YL1 / RFU, ZEB2 / Fold change vs veh, ZEB2 / RFU, NRIP1 / Fold change vs veh, NRIP1 / RFU, PTTG1IP / Fold change vs veh, PTTG1IP / RFU, CAPN2 / Fold change vs veh, CAPN2 / RFU, MED14 / Fold change vs veh, MED14 / RFU, SNORA58 / Fold change vs veh, SNORA58 / RFU, C1orf63 / Fold change vs veh, C1orf63 / RFU, LRRFIP1 / Fold change vs veh, LRRFIP1 / RFU, NDUFAF7 / Fold change vs veh, NDUFAF7 / RFU, SLC12A2 / Fold change vs veh, SLC12A2 / RFU, IBTK / Fold change vs veh, IBTK / RFU, ESF1 / Fold change vs veh, ESF1 / Fold change vs veh, TMEM50B / RFU, TAOK1 / Fold change vs veh, TAOK1 / RFU, ACBD3 / Fold change vs veh, ACBD3 / RFU, TMA16 / Fold change vs veh, TMA16 / RFU, RWDD3 / Fold change vs veh, RWDD3 / RFU, BCAT1 / Fold change vs veh, BCAT1 / RFU, EDEM3 / Fold change vs veh, EDEM3 / RFU, TMEM33 / Fold change vs veh, TMEM33 / RFU, WDR75 / Fold change vs veh, WDR75 / RFU, AHCTF1 / Fold change vs veh, AHCTF1 / RFU, TFRC / Fold change vs veh, TFRC / RFU, ZDHHC17 / Fold change vs veh, ZDHHC17 / RFU, NOM1 / Fold change vs veh, NOM1 / RFU, ARL8B / Fold change vs veh, ARL8B / RFU, ZBTB11 / Fold change vs veh, ZBTB11 / RFU, TAMM41 / Fold change vs veh, TAMM41 / RFU, KIAA1704 /// LOC100996395 / Fold change vs veh, KIAA1704 /// LOC100996395 / RFU, ING1 / Fold change vs veh, ING1 / RFU, TRMT61B / Fold change vs veh, TRMT61B / RFU, FUBP3 / Fold change vs veh, FUBP3 / RFU, TP53 / Fold change vs veh, TP53 / RFU, TNKS2 / Fold change vs veh, TNKS2 / RFU, ZFP14 / Fold change vs veh, ZFP14 / RFU, ACTR2 / Fold change vs veh, ACTR2 / RFU, PPP3R1 / Fold change vs veh, PPP3R1 / RFU, PIK3R1 / Fold change vs veh, PIK3R1 / RFU, HNRNPA1 / Fold change vs veh, HNRNPA1 / RFU, RNF170 / Fold change vs veh, RNF170 / RFU, ZNF28 / Fold change vs veh, ZNF28 / RFU, RNGTT / Fold change vs veh, RNGTT / RFU, OGT / Fold change vs veh, OGT / RFU, BRD1 / Fold change vs veh, BRD1 / RFU, MARS / Fold change vs veh, MARS / RFU, ZNF655 / Fold change vs veh, ZNF655 / RFU, FAHD1 / Fold change vs veh, FAHD1 / RFU, BDP1 / Fold change vs veh, BDP1 / RFU, LRRCC1 / Fold change vs veh, LRRCC1 / RFU, ARID1A / Fold change vs veh, ARID1A / RFU, ZNF146 / Fold change vs veh, ZNF146 / RFU, ZNF330 / Fold change vs veh, ZNF330 / RFU, GPN3 / Fold change vs veh, GPN3 / RFU, C9orf123 / Fold change vs veh, C9orf123 / RFU, N4BP2L2 / Fold change vs veh, N4BP2L2 / RFU, ARFIP1 / Fold change vs veh, ARFIP1 / RFU, FAM179B / Fold change vs veh, FAM179B / RFU, BCL10 / Fold change vs veh, BCL10 / RFU, UHRF1BP1L / Fold change vs veh, UHRF1BP1L / RFU, BET1 / Fold change vs veh, BET1 / RFU, CNOT2 / Fold change vs veh, CNOT2 / RFU, ZNF268 / Fold change vs veh, ZNF268 / Fold change vs veh, ZNF507 / RFU, DGCR2 / Fold change vs veh, DGCR2 / RFU, WDSUB1 / Fold change vs veh, WDSUB1 / Fold change vs veh, HSP90B1 /// MIR3652 / RFU, ADSS / Fold change vs veh, ADSS / RFU, GK / Fold change vs veh, GK / RFU, ZNF148 / Fold change vs veh, ZNF148 / RFU, TAF9 / Fold change vs veh, TAF9 / RFU, SLC1A5 / Fold change vs veh, SLC1A5 / RFU, SLMO2 / Fold change vs veh, SLMO2 / RFU, ABCC4 / Fold change vs veh, ABCC4 / RFU, LOC101060439 /// RAP1B / Fold change vs veh, LOC101060439 /// RAP1B / RFU, RFX7 / Fold change vs veh, RFX7 / RFU, GTPBP10 / Fold change vs veh, GTPBP10 / RFU, CNEP1R1 / Fold change vs veh, CNEP1R1 / RFU, BIVM-ERCC5 /// ERCC5 / Fold change vs veh, BIVM-ERCC5 /// ERCC5 / RFU, ILF3 / Fold change vs veh, ILF3 / RFU 11762660_at / Fold change /veh 11762660_at / RFU VCAN (11757783_s_at) / Fold change /veh VCAN (11757783_s_at) / RFU DDX43 (11728927_at) / Fold change /veh DDX43 (11728927_at) / RFU KRT8 (11758188_x_at) / Fold change /veh KRT8 (11758188_x_at) / RFU NKD1 (11759106_at) / Fold change /veh NKD1 (11759106_at) / RFU SRD5A1 (11742802_a_at) / Fold change /veh SRD5A1 (11742802_a_at) / RFU TPSAB1 /// TPSB2 (11721975_s_at) / Fold change /veh TPSAB1 /// TPSB2 (11721975_s_at) / RFU GSTM3 (11746129_a_at) / Fold change /veh GSTM3 (11746129_a_at) / RFU IL23R (11737362_x_at) / Fold change /veh IL23R (11737362_x_at) / RFU TMEM51 (11727254_a_at) / Fold change /veh TMEM51 (11727254_a_at) / RFU PIWIL2 (11732686_x_at) / Fold change /veh PIWIL2 (11732686_x_at) / RFU ORM1 (11744905_x_at) / Fold change /veh ORM1 (11744905_x_at) / RFU CCDC152 (11743942_at) / Fold change /veh CCDC152 (11743942_at) / RFU ECM1 (11717891_a_at) / Fold change /veh ECM1 (11717891_a_at) / RFU IL23R (11748794_a_at) / Fold change /veh IL23R (11748794_a_at) / RFU TNFAIP8L3 (11732012_x_at) / Fold change /veh TNFAIP8L3 (11732012_x_at) / RFU MBOAT4 (11741988_at) / Fold change /veh MBOAT4 (11741988_at) / RFU 11764193_at / Fold change /veh 11764193_at / RFU TMEM53 (11763286_at) / Fold change /veh TMEM53 (11763286_at) / RFU MAGEB2 (11727129_at) / Fold change /veh MAGEB2 (11727129_at) / RFU TMEM200A (11744735_a_at) / Fold change /veh TMEM200A (11744735_a_at) / RFU CCDC152 (11751479_a_at) / Fold change /veh CCDC152 (11751479_a_at) / RFU FAM211A (11726209_a_at) / Fold change /veh FAM211A (11726209_a_at) / RFU RGS16 (11746705_a_at) / Fold change /veh RGS16 (11746705_a_at) / RFU VCAN (11755009_s_at) / Fold change /veh VCAN (11755009_s_at) / RFU RHOB (11743442_s_at) / Fold change /veh RHOB (11743442_s_at) / RFU RGS16 (11720943_a_at) / Fold change /veh RGS16 (11720943_a_at) / RFU RGS16 (11720944_at) / Fold change /veh RGS16 (11720944_at) / RFU, VPS4B / Fold change vs veh, VPS4B / RFU, CREB1 / Fold change vs veh, CREB1 / RFU, DNAJC13 / Fold change vs veh, DNAJC13 / RFU, GNAQ / Fold change vs veh, GNAQ / RFU, CDK5R1 / Fold change vs veh, CDK5R1 / RFU, ZRANB3 / Fold change vs veh, ZRANB3 / RFU, CUL4A / Fold change vs veh, CUL4A / RFU, CCNY / Fold change vs veh, CCNY / RFU, UFL1 / Fold change vs veh, UFL1 / RFU, COG3 / Fold change vs veh, COG3 / RFU, DIAPH2 / Fold change vs veh, DIAPH2 / RFU, SKA2 / Fold change vs veh, SKA2 / RFU, AFF3 / Fold change vs veh, AFF3 / RFU, LMF1 / Fold change vs veh, LMF1 / RFU, IPO11 / Fold change vs veh, IPO11 / RFU, DFFB / Fold change vs veh, DFFB / RFU, FOXP1 / Fold change vs veh, FOXP1 / RFU, CARD8 / Fold change vs veh, CARD8 / RFU, STRN3 / Fold change vs veh, STRN3 / RFU, ADK / Fold change vs veh, ADK / RFU, RASSF2 / Fold change vs veh, RASSF2 / RFU, WIPF1 / Fold change vs veh, WIPF1 / RFU, LARP1B / Fold change vs veh, LARP1B / RFU, RASA1 / Fold change vs veh, RASA1 / RFU, RB1 / Fold change vs veh, RB1 / RFU, PPFIA1 / Fold change vs veh, PPFIA1 / RFU, MAT2A / Fold change vs veh, MAT2A / RFU, CCT5 / Fold change vs veh, CCT5 / RFU, WDR92 / Fold change vs veh, WDR92 / RFU, CUX1 / Fold change vs veh, CUX1 / RFU, TTC7A / Fold change vs veh, TTC7A / RFU, TMEM135 / Fold change vs veh, TMEM135 / RFU, DEPTOR / Fold change vs veh, DEPTOR / RFU, CPM / Fold change vs veh, CPM / RFU, DNAJB6 / Fold change vs veh, DNAJB6 / RFU, CACNA2D3 / Fold change vs veh, CACNA2D3 / RFU, DTX4 / Fold change vs veh, DTX4 / RFU, TFCP2 / Fold change vs veh, TFCP2 / RFU, GMCL1 /// GMCL1P1 / Fold change vs veh, GMCL1 /// GMCL1P1 / RFU, AEBP2 / Fold change vs veh, AEBP2 / RFU, SNHG1 /// SNORD22 /// SNORD25 /// SNORD26 /// SNORD27 /// SNORD28 /// SNORD29 /// SNORD31 / Fold change vs veh, SNHG1 /// SNORD22 /// SNORD25 /// SNORD26 /// SNORD27 /// SNORD28 /// SNORD29 /// SNORD31 / Fold change (Aza/veh), C12orf56 (ProbeSet 11735607_a_at) / Fold change (ACY-1035/veh), C12orf56 (ProbeSet 11735607_a_at) / Fold change (Aza/veh), FGFR1OP (ProbeSet 11751329_s_at) / Fold change (ACY-1035/veh), FGFR1OP (ProbeSet 11751329_s_at) / Fold change (Aza/veh), VPS36 (ProbeSet 11739960_a_at) / Fold change (ACY-1035/veh), VPS36 (ProbeSet 11739960_a_at) / RFU SYPL1 (11715823_x_at) / Fold change /veh SYPL1 (11715823_x_at) / RFU IGFBP7 (11715501_s_at) / Fold change /veh IGFBP7 (11715501_s_at) / RFU REEP3 (11722064_at) / Fold change /veh REEP3 (11722064_at) / RFU IGLL1 (11728026_x_at) / Fold change /veh IGLL1 (11728026_x_at): dose or concentration left out as unconfirmed
Details: ProbeSet 11725885_a_at; LIST B

`Nc1ccc(-c2cccs2)cc1NC(=O)c1ccc2c(c1)cc(C1CC1)n2CCN1CCOCC1` [ACY-1035] was tested, and the “RFU, CNEP1R1” value was 81.80 RFU.
